The results in this text go back to patent US11311520B2, “Substituted dihydroimidazopyridinediones as MKNK1 and MKNK2 inhibitors” (Bayer Pharma Aktiengesellschaft, priority 2017, dated 2022).

Each structure is given as a SMILES string.

This assay deals with human full-length MKNK1 (Homo sapiens (Human), UniProt Q9BUB5, T344D). Put plainly: MKNK1 kinase high ATP assay (TR-FRET). It is filed as biochemical. The settings on record: 2 mM ATP, 15 min preincubation with enzyme, GST-MKNK1 (T344D). The method, boiled down:
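GST-tagged full-length human MKNK1 (1-424, T344D, baculovirus-expressed) preincubated 15 min at 22 °C with compound, then reacted 30 min at 22 °C with 2 mM ATP and 0.06 μM biotinylated peptide (final) in HEPES pH 7.5. Phospho-substrate by TR-FRET (665/622 nm ratio), normalised to no-inhibitor and no-enzyme controls.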
On the technique in general: TR-FRET usually uses a lanthanide donor and a delayed reading to cut background.

Sequence of human full-length MKNK1 (Q9BUB5 other isoform, or with tags, fused parts or gaps T344D): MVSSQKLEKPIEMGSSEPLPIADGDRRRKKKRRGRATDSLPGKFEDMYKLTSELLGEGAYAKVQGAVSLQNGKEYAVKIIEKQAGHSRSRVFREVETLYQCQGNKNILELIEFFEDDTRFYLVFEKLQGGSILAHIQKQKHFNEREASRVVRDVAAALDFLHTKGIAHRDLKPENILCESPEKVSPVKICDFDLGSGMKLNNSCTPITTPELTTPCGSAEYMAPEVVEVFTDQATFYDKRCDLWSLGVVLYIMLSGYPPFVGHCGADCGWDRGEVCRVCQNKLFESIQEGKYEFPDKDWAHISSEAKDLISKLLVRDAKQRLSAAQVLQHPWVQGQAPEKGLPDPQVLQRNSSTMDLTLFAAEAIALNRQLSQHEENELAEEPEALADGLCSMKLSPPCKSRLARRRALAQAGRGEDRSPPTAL

`Cc1cc(Nc2ncnc3sc(C(=O)O)c(C)c23)c(=O)n2c1C(=O)NC21CCC1` [Example 169]: half-maximal inhibition (IC50) was put at 15.7 nM.
`Cc1cc(Nc2ncnc3sccc23)c(=O)n2c1C(=O)NC21CCC(O)(C(F)(F)F)CC1` (centres unmarked) [Example 130, 4-Hydroxy-8′-methyl-6′-(thieno[2,3-d]pyrimidin-4-ylamino)-4-(trifluoromethyl)-2′H-spiro[cyclohexane-1,3′-imidazo[1,5-a]pyridine]-1′,5′-dione]: the IC50 came out at 7.9 nM.
The result for `Cc1cc(Nc2ncnc3ccc(Cl)cc23)c(=O)n2c1C(=O)NC21CSC1` [Example 175, 6-[(6-chloroquinazolin-4-yl)amino]-8-methyl-2H-spiro[imidazo[1,5-a]pyridine-3,3′-thietane]-1,5-dione] reads 14.4 nM.
The result for `Cc1cc(Nc2ncnc3c2CN(S(C)(=O)=O)C3)c(=O)n2c1C(=O)NC21CCCCC1` [Example 69, 8′-methyl-6′-{[6-(methylsulfonyl)-6,7-dihydro-5H-pyrrolo[3,4-d]pyrimidin-4-yl]amino}-2′H-spiro[cyclohexane-1,3′-imidazo[1,5-a]pyridine]-1′,5′-dione] reads 144 nM; that for `Cc1cc(Nc2ncnc(N)n2)c(=O)n2c1C(=O)NC21CCCCC1` [Example 2, 6′-[(4-Amino-1,3,5-triazin-2-yl)amino]-8′-methyl-2′H-spiro[cyclohexane-1,3′-imidazo[1,5-a]pyridine]-1′,5′-dione], 6.4 nM; that for `Cc1cc(Nc2ncnc3[nH]ccc23)c(=O)n2c1C(=O)NC21CCC1` [Example 148, 8′-Methyl-6′-(7H-pyrrolo[2,3-d]pyrimidin-4-ylamino)-2′H-spiro[cyclobutane-1,3′-imidazo[1,5-a]pyridine]-1′,5′-dione], 0.4 nM.
The result for `Cc1cc(Nc2ncnc(NC(=O)C3CC3)n2)c(=O)n2c1C(=O)NC21CCC1` [Example 146, N-{4-[(8′-Methyl-1′,5′-dioxo-1′,5′-dihydro-2′H-spiro[cyclobutane-1,3′-imidazo[1,5-a]pyridin]-6′-yl)amino]-1,3,5-triazin-2-yl}cyclopropanecarboxamide] reads 8.2 nM; that for `Cc1cc(Nc2ncnc3sc(C(N)=O)cc23)c(=O)n2c1C(=O)NC21CCCC1` [Example 102, 4-[(8′-Methyl-1′,5′-dioxo-1′,5′-dihydro-2′H-spiro[cyclopentane-1,3′-imidazo[1,5-a]pyridin]-6′-yl)amino]thieno[2,3-d]pyrimidine-6-carboxamide], 5.7 nM; that for `Cc1cc(Nc2ncnc3sc(C(=O)N4C[C@H]5C[C@@H]4CO5)cc23)c(=O)n2c1C(=O)NC21CCC1` [Example 158, 8′-Methyl-6′-({6-[(1R,4R)-2-oxa-5-azabicyclo[2.2.1]hept-5-ylcarbonyl]thieno[2,3-d]pyrimidin-4-yl}amino)-2′H-spiro[cyclobutane-1,3′-imidazo[1,5-a]pyridine]-1′,5′-dione], 5 nM.
In turn, `Cc1cc(Nc2ncnc3sc(C(=O)N4C[C@H]5C[C@@H]4CN5C)cc23)c(=O)n2c1C(=O)NC21CCCCC1` [Example 42, 8′-Methyl-6′-[(6-{[(1R,4R)-5-methyl-2,5-diazabicyclo[2.2.1]hept-2-yl]carbonyl}thieno[2,3-d]pyrimidin-4-yl)amino]-2′H-spiro[cyclohexane-1,3′-imidazo[1,5-a]pyridine]-1′,5′-dione] returned an IC50 of 1.9 nM.
The same measure for `Cc1cc(Nc2ncnc3ccc(Cl)cc23)c(=O)n2c1C(=O)NC21CCCCC1` [Example 46, 6′-[(6-Chloroquinazolin-4-yl)amino]-8′-methyl-2′H-spiro[cyclohexane-1,3′-imidazo[1,5-a]pyridine]-1′,5′-dione]: 4.1 nM; for `Cc1cc(Nc2ncnc3ccc(Cl)cc23)c(=O)n2c1C(=O)NC21CS(=O)(=O)C1` [Example 180, 6-[(6-chloroquinazolin-4-yl)amino]-8-methyl-2H-spiro[imidazo[1,5-a]pyridine-3,3′-thietane]-1,5-dione 1′,1′-dioxide]: 104 nM; for `CCCNC(=O)Nc1ncnc(Nc2cc(C)c3n(c2=O)C2(CCCCC2)NC3=O)n1` [Example 3, 1-{4-[(8′-Methyl-1′,5′-dioxo-1′,5′-dihydro-2′H-spiro[cyclohexane-1,3′-imidazo[1,5-a]pyridin]-6′-yl)amino]-1,3,5-triazin-2-yl}-3-propylurea]: 18.8 nM.
The result for `Cc1cc(Nc2ccnc3[nH]cnc23)c(=O)n2c1C(=O)NC21CCCCC1` [Example 57, 6′-(3H-Imidazo[4,5-b]pyridin-7-ylamino)-8′-methyl-2′H-spiro[cyclohexane-1,3′-imidazo[1,5-a]pyridine]-1′,5′-dione] reads 6.2 nM; that for `Cc1cc(Nc2ncnc3sc(C(=O)O)c(C)c23)c(=O)n2c1C(=O)NC21CCCCC1` [Example 15, 5-Methyl-4-[(8′-methyl-1′,5′-dioxo-1′,5′-dihydro-2′H-spiro[cyclohexane-1,3′-imidazo[1,5-a]pyridin]-6′-yl)amino]thieno[2,3-d]pyrimidine-6-carboxylic acid], 21.3 nM; that for `Cc1cc(Nc2ncnc(NC(=O)C3CC3)n2)c(=O)n2c1C(=O)NC21CCCC1` [Example 53, N-{4-[(8′-Methyl-1′,5′-dioxo-1′,5′-dihydro-2′H-spiro[cyclopentane-1,3′-imidazo[1,5-a]pyridin]-6′-yl)amino]-1,3,5-triazin-2-yl}cyclopropanecarboxamide], 2.4 nM.
In turn, `Cc1cc(Nc2ncnc3c2CN(S(=O)(=O)CC(F)(F)F)C3)c(=O)n2c1C(=O)NC21CCCCC1` [Example 73, 8′-methyl-6′-({6-[(2,2,2-trifluoroethyl)sulfonyl]-6,7-dihydro-5H-pyrrolo[3,4-d]pyrimidin-4-yl}amino)-2′H-spiro[cyclohexane-1,3′-imidazo[1,5-a]pyridine]-1′,5′-dione] registered an IC50 of 168 nM.

The term IC50 denotes the concentration needed to halve the response being measured.
